In the OPERA property sets (Mansouri et al. 2018):

| SMILES | logP |
| --- | --- |
| CC(=O)Nc1ccn(C2OC(COC(C)=O)C(OC(C)=O)C2OC(C)=O)c(=O)n1 (stereo unspecified) | -0.16 |
| CN(C)C(=O)c1cnc2ccccc2c1 | 0.99 |
| COc1cc(OC)c(OC)cc1Cc1cnc(N)nc1N | 1.17 |
| COc1cc(Cc2cnc(N)nc2N)cc(OC)c1C(C)C | 3.37 |
| CC(C)CNCNC(=O)c1ccccc1 | 1.73 |
| CC1CN(C)C(=Nc2ncc([N+](=O)[O-])s2)N1 (stereo unspecified) | 1.95 |
| CSc1ccc2c(c1)C(c1ccccc1)=NCC(=O)N2C | 2.95 |
| CCCCN(SN(C)C(=O)ON=C(C)SC)C(=O)OC | 2.5 |
| C#CCN(C)N=Nc1nc[nH]c1C(N)=O | 0.33 |
| COc1cc(C)nc(-n2nc(C)cc2OC)n1 | 1.26 |
| CN(C)CCC=C1c2ccccc2CCc2c(Cl)cccc21 | 5.55 |
| CN(C)C(=O)OCc1ccccc1 | 2.16 |
| CN(C)Cc1cccs1 | 1.67 |
| CCOC(=O)CN(C(=O)CCl)c1ccccc1 | 1.6 |
| COCC1=Nc2cc(Cl)ccc2S(=O)(=O)N1 | 1.12 |
| O=S1(=O)NC(C(Cl)Cl)=Nc2cc(Cl)ccc21 | 1.81 |
| O=[N+]([O-])c1cnc(NC2=NCCN2CCO)s1 | 1.23 |
| COc1ccc(C2=NCC(=O)N(C)c3ccc(Cl)cc32)cc1 | 3.15 |
| COC(=O)C(C#N)=NNc1cccc(C(F)(F)F)c1 | 3.78 |
| Cc1ccc(Cl)c(Cl)c1NC1=NCCN1 | 2.35 |
| CNC(=O)ON=CC(C)(C)[N+](=O)[O-] | 0.36 |
| CCOC(=O)c1ccc(Cl)nn1 | 0.12 |
| O=C1CCC(=O)N1c1cccc(C(F)(F)F)c1 | 1.26 |
| Nc1nc(N)nc(-c2cc(F)ccc2Cl)n1 | 1.38 |
| OCC1OC(Oc2ccc3ccccc3c2)C(O)C(O)C1O (stereo unspecified) | 0.76 |
| CCN(CC)C(=O)NN | -0.62 |

| SMILES | logP |
| --- | --- |
| O=C1CCCN1Cc1ccccc1 | 1.25 |
| Cc1cc(C)cc(O[Si]23OCCN(CCO2)CCO3)c1 | 0.46 |
| CN1C(=O)CN=C(c2ccccc2)c2cc(N)ccc21 | 1.46 |
| O=C(O)CCN1C(=O)C=CC1=O | 0.04 |
| O=S(=O)(Nc1ccc(Cl)cc1Cl)C(F)(F)F | 3.88 |
| CC1CCCN(N=O)C1 (stereo unspecified) | 0.99 |
| O=C1CN=C(c2ccccc2)c2cc([N+](=O)[O-])ccc2N1CC(O)CO (stereo unspecified) | 0.96 |
| Cc1cc(=O)n2c(C)cccc2n1 | 1.05 |
| O=[N+]([O-])c1cc(Cl)c(N=C2NCCN2)c(Cl)c1 | 2.1 |
| CCCCC(C)n1nnc2ccccc21 (stereo unspecified) | 3.44 |
| COc1ccnc(-n2nc(C)cc2OC)n1 | 1.01 |
| CN(C)C(=O)Oc1ccc([N+](=O)[O-])cc1 | 1.5 |
| S=C=Nc1ccc2cc3ccccc3cc2c1 | 5.7 |
| OCCCCn1nnc2ccccc21 | 1.03 |
| Nc1ccc(C(O)C(CO)NC(=O)C(Cl)Cl)cc1 (stereo unspecified) | -0.29 |
| S=C=Nc1ccc(C=Cc2ccccc2)cc1 | 5.85 |
| CCCOn1c(=O)[nH]c(C)c(SC#N)c1=O | -0.22 |
| COC(=O)C(C#N)=NNc1ccc(Cl)cc1C | 4.3 |
| NC(=O)NC1OC(=O)c2ccccc21 (stereo unspecified) | 0.49 |
| Cc1[nH]c(=O)n(OCC(C)C)c(=O)c1Br | 1.23 |
| ClC1C(Cl)C(Cl)C(I)C(Cl)C1Cl (stereo unspecified) | 4.05 |
| Clc1ccc(C2NCCS2)cc1 (stereo unspecified) | 2.1 |
| CC(=O)c1ccccc1NCCO | 1.59 |
| CNP(=O)(OC)SC (stereo unspecified) | -0.07 |
| Nc1nc(N)nc(-c2c(Cl)cccc2Cl)n1 | 1.38 |
| O=C1CCC(=O)N1c1cccc(Br)c1 | 1.09 |

| SMILES | logP |
| --- | --- |
| CS(=O)(=O)c1cccc(CC(=O)O)c1 | 0.06 |
| S=C=Nc1ccc(-c2ccc(N=C=S)cc2)cc1 | 5.5 |
| COc1ccc(Cc2cnc(N)nc2N)c(OC)n1 | 2.01 |
| O=S(=O)(Nc1cccc(Cl)c1)C(F)(F)F | 4 |
| CCCCCCN(SN(C)C(=O)ON=C(C)SC)C(=O)c1ccccc1 | 4.2 |
| CN(C)c1ncnc2sccc12 | 1.82 |
| CCOC(=O)c1cnc2cccc(C)n2c1=O | 0.96 |
| COc1ccc(N(C)C(C)=O)cc1 | 0.72 |
| CCN1C(=N)SC(=Cc2ccc([N+](=O)[O-])o2)C1=O | 1.44 |
| O=C1CN=C(c2c(F)cccc2F)c2cc(Cl)ccc2N1 | 2.68 |
| N#CC(C#N)=C(c1ccccc1)c1ccccc1 | 3.55 |
| CC(=O)N(C)/N=N/c1ccc(F)cc1 | 2.77 |
| ClC1C(Cl)C(Br)C(Cl)C(Br)C1Cl (stereo unspecified) | 3.98 |
| COc1cc(Cc2cnc(N)nc2N)ccc1Cl | 1.87 |
| CCCCNP(=O)(OC)SC (stereo unspecified) | 0.94 |
| CCC1(CC)OC(=O)c2ccccc21 | 2.69 |
| CCCCCCOn1c(=O)[nH]c(C)c(Br)c1=O | 2.48 |
| CN(C)c1nc2ccccc2o1 | 2.1 |
| CCc1c(OC)cc(Cc2cnc(N)nc2N)cc1OC | 2.72 |
| CC(=O)C(C#N)=NNc1ccccc1Cl | 4 |
| COc1cc(-n2nc(C)cc2OC)nc(OC)n1 | 1.86 |
| CC1(C)N=C(N)N=C(N)N1c1ccc(N)cc1 | -0.59 |
| CCOC(=O)C(=Cc1cccc(OC)c1OC)C(C)=O | 2.21 |
| N#Cc1cccc(OC(=O)CNC(=O)c2ccccc2)c1 | 2.11 |
| NC1CC2CCC1c1ccccc12 (stereo unspecified) | 2.29 |
| O=[N+]([O-])c1nccn1C1SC(CO)C(O)C(O)C1O (stereo unspecified) | -0.66 |

| SMILES | logP |
| --- | --- |
| CNc1nc(N(C)C)nc(N(C)C)n1 | 1.83 |
| Cc1ccc(C=C[N+](=O)[O-])cc1 | 2.66 |
| [O-][n+]1ccccc1SCc1ccccc1 | 1.24 |
| CON(C)C(=O)Nc1ccc(C(C)C)cc1 | 2.95 |
| CCCCCCCC[n+]1ccc(C)cc1C.[I-] | -0.57 |
| Cc1cccc(OC2OC(CO)C(O)C(O)C2O)c1 (stereo unspecified) | -0.2 |
| Cn1ncc2c([N+](=O)[O-])cc([N+](=O)[O-])cc21 | 1.63 |
| CN(C)N=Nc1cccc([N+](=O)[O-])c1 | 2.75 |
| CCCCCCCC(=O)NN | 1 |
| Cc1ccc(C(=O)c2ccncc2)cc1 | 2.51 |
| CC(C)c1nnc(N2CCOCC2)n(N)c1=O | 0.49 |
| CCCCCCCCCCCCCCCC[n+]1ccc(C)c(C)c1.[I-] | 3.16 |
| CC(C)(C)c1ccc(OC2OC(CO)C(O)C(O)C2O)cc1 (stereo unspecified) | 1.18 |
| O=[N+]([O-])c1nccn1C1OC(CO)C(O)C1O (stereo unspecified) | -1.15 |
| COC12C(COC(N)=O)C3=C(C(=O)C(C)=C(N)C3=O)N1CC1C2N1C(=O)OCc1ccccc1 (stereo unspecified) | 1.34 |
| CCOC(=O)CCCn1nnc2ccccc21 | 1.86 |
| Cc1nonc1-c1ccccn1 | 2.09 |
| CC1=Nc2cc(Br)ccc2S(=O)(=O)N1 | 1.37 |
| O=C(O)Cc1ccc(S(=O)(=O)F)cc1 | 1.86 |
| CN(C)N=Nc1ccc(C#N)cc1 | 2.39 |
| CCOP(=S)(OCC)Oc1ccccc1 | 3.46 |
| CNC1=NC(=O)C(=CC=Cc2ccc([N+](=O)[O-])o2)S1 | 1.35 |
| CCOC(=O)c1[nH]cnc1N=NN(C)C | 0.44 |
| CCNC(=O)CNC(=O)C=[N+]=[N-] | -0.62 |
| CN(C)C(=O)CCC(=O)OCC(=O)C1(O)CCC2C3CCC4=CC(=O)CCC4(C)C3C(O)CC21C (stereo unspecified) | 2.03 |
| NNC(=O)NC1CCCCC1 | 0.15 |

| SMILES | logP |
| --- | --- |
| CCNP(=O)(OC)SC (stereo unspecified) | 0.07 |
| CCOP(=O)(OCC)SCS(=O)CC (stereo unspecified) | 1.78 |
| COc1ccc(Cc2cnc(N)nc2N)cc1Nc1ccccc1 | 2.88 |
| CC(C)NC(=O)NN | -1.3 |
| CN(/N=N/c1nc[nH]c1C(N)=O)C(C)(C)C | 0.94 |
| S=C=NCc1cccc2ccccc12 | 4.42 |
| Cn1c(=O)nc(-c2ccccc2)c2ccccc21 | 1.79 |
| Cc1cc(C)c(NC2=NCCN2)c(Cl)c1 | 2.1 |
| CSc1nnc(C2CCCCO2)c(=O)n1N (stereo unspecified) | 0.38 |
| OCC1OC(Oc2ccccc2I)C(O)C(O)C1O (stereo unspecified) | 0.27 |
| COP(=O)(OC)Oc1cc(C)c([N+](=O)[O-])c(C)c1 | 2.57 |
| Cc1ccccc1C(=N)c1ccccc1 | 3.21 |
| CCSCC1=Nc2cc(Cl)ccc2S(=O)(=O)N1 | 2.26 |
| CC(=O)Nc1cc(OCC(=O)O)ccc1Cl | 0.75 |
| CN(C)CCCC(c1ccccc1)c1ccc(C(C)(C)C)cc1 (stereo unspecified) | 5.72 |
| O=C(O)COc1ccccc1-c1ccccc1 | 2.83 |
| Nc1cccc(OC(=O)CNC(=O)c2ccccc2)c1 | 1.3 |
| CCCNP(=O)(OC)SC (stereo unspecified) | 0.65 |
| O=C1CCC(=O)N1c1ccc(C(F)(F)F)cc1 | 1.45 |
| CCCCCCCCCCCCCC[n+]1ccc(C)cc1C.[I-] | 2.47 |
| CCc1cnc2cccc(C)n2c1=O | 1.79 |
| NNC(=O)c1ccc2ncccc2c1 | 0.35 |
| COc1cc(Cc2cnc(N)nc2N)cc(OC)c1C(=O)N(C)C | -0.21 |
| COc1ccc(C(=O)c2ccncc2)cc1 | 1.94 |
| CCOc1cc(Cc2cnc(N)nc2N)cc(OC)c1C(C)(C)O | 2.11 |
| CSC(C)=NOC(=O)N(C)SN(C)C(=O)c1ccc(Cl)cc1Cl | 3.2 |

| SMILES | logP |
| --- | --- |
| CSC(C)=NOC(=O)N(C)SN(C)C(=O)OC(C)(C)C | 2.8 |
| CN1C(=N)SC(=Cc2ccc([N+](=O)[O-])o2)C1=O | 1.44 |
| CC1=Nc2ccc(C)cc2S(=O)(=O)N1 | 0.81 |
| O=NN(CCCl)C(=O)NC1CCC(O)CC1 (stereo unspecified) | 1.11 |
| N#CC(=Cc1ccccc1)C(=O)Nc1ccccc1 | 3.41 |
| CCN(CC)CCNC(=O)c1cc(Cl)cc(Cl)c1 | 3.77 |
| CCOC(=O)c1cnc2ccccn2c1=O | 0.25 |
| CN(C)c1ccc(Cc2cnc(N)nc2N)cc1 | 1.82 |
| CC1CNC(=Nc2ncc([N+](=O)[O-])s2)N1C (stereo unspecified) | 2.02 |
| CC12CC3CC(C1)CC(N)(C3)C2 | 3.01 |
| CNP(=O)(OC)Oc1ccc(SC)cc1 (stereo unspecified) | 1.81 |
| O=C1CN=C(c2ccccc2F)c2cc(Cl)ccc2N1 | 2.7 |
| CCCC12CC3CC(CC(N)(C3)C1)C2 | 3.76 |
| COc1ccc(CC(C)N)c(OC)c1 (stereo unspecified) | 1.75 |
| CSC(C)=NOC(=O)N(C)SN(C)C(=O)N(C)C | 1.2 |
| CNC1C2CCC1c1ccccc12 (stereo unspecified) | 2.37 |
| OCC1OC(Oc2cc(OC3OC(CO)C(O)C(O)C3O)c(I)cc2I)C(O)C(O)C1O (stereo unspecified) | -0.25 |
| COC(=O)C(C#N)=NNc1cc(C(F)(F)F)ccc1Cl | 4.42 |
| Cc1cccc(C)c1C(=N)c1ccccc1 | 3.53 |
| N#CCN(CC#N)N=O | 0.04 |
| Cc1cc(-n2c(=O)cc(C)n2C)nc(C)n1 | 0.24 |
